What is called IC50 is the concentration that inhibits the measured activity by half.

SMILES strings stand for the structures.

For experiment [1], the system named is Ba/F3 EGFR-D770-N771ins_SVD xenograft. Description: In vivo pharmacodynamic study in mouse pro-B cell Ba/F3 EGFR-D770-N771ins_SVD xenograft model. Particulars: 40 mg/kg, oral, 1 time/day, 14 days; for Tumor volume (mm3, Mean ± SD) Day 14: BALB/cA nude mice. The method, then: In Vivo Pharmacodynamic Study of the Compound of the Present Invention in the Mouse Pro-B Cell Ba/F3 EGFR-D770-N771ins_SVD Xenograft Model
The in vivo efficacy of the compound in the mouse pro-B cell Ba/F3 EGFR-D770-N771ins_SVD xenograft model was evaluated.
BALB/cA nude mice (6-8 weeks old, female) were purchased from Shanghai Sino-British SIPPR/BK Lab Animal Co., Ltd.
a. […] The resuscitated cells were placed in the cell culture flasks (cell type, date, the name of the culturing person and the like were marked on the flask wall), and incubated in a CO2 incubator (the incubator temperature was 37° C., and the CO2 concentration was 5%).
b. The cells were passaged every three days. After passage, the cells were further incubated in the CO2 incubator. The process was repeated until the number of cells met the requirements of the in vivo pharmacodynamic study.
c. The cultured cells were collected and counted by the automatic cell counter. According to the counting results, the cells were resuspended in PBS to prepare a cell suspension (density: 2×10^7 cells/mL), which was placed in an ice box for later use.
d. The test nude mice were inoculated in turn (0.1 mL of cell suspension per mouse).
a. Tumor was measured on Day 8 to Day 14 after inoculation depending on the tumor growth, and tumor size was calculated.
Tumor volume calculation: tumor volume (mm^3)=length (mm)×width (mm)×width (mm)/2
b. According to the body weight and tumor size of the tumor-bearing mouse, the mice were randomly grouped (5 mice per group).
d. The tumor was measured and the mouse was weighed twice a week after the test drug was administrated.
Calculation of the Tumor Growth Inhibition Rate TGI (%) of the Compound: […]

A further experiment concerns the target EGFR WT (Homo sapiens, UniProt P00533). The experiment can be described thus: TR-FRET inhibition of kinase activity of wild type EGFR. Format: biochemical. An excerpt:
Determination of the Inhibitory Effect of the Compound of the Present Invention on the Kinase Activity of Wild Type EGFR
Experimental objective: The objective of this test example is to determine the inhibitory effect of the compound on the kinase activity of wild type EGFR.
Experimental process: The experiment applied the TR-FRET (time-resolved fluorescence resonance energy transfer) method to study the inhibitory effect of the compound on the kinase activity of wild type EGFR. The experiment was carried out in a 384-well plate. Experimental buffer (50 mM HEPES, 1 mM EGTA, 10 mM MgCl2, 2 mM DTT, 0.01% Tween-20) was formulated. The compound was diluted in gradient to different concentrations with the experimental buffer. 2 μL of the solution was added to each well of the 384-well plate. 4 μL of diluted EGFR kinase solution (0.001-0.5 nM) was added, and the plate was incubated at room temperature for 10 minutes. 4 μL of ULight-poly GT/ATP mixed solution was added, and the plate was incubated at room temperature for 30 to 60 minutes. 5 μL of EDTA stop solution and 5 μL of Eu-labeled antibody detection solution were added, and the plate was incubated at room temperature for 1 hour.
(§1) Experimental Data Processing Method:
The concentration and inhibition rate were fitted to a nonlinear regression curve by Graphpad Prism software to obtain the IC50 value.

Another experiment deals with EGFR D770_N771insNPG (Homo sapiens, UniProt P00533, INS770NPG). The experiment can be described thus: TR-FRET inhibition of kinase activity of EGFR exon 20 insertion mutation. Format: biochemical.
The test system of the next experiment is A431 cell line. The experiment can be described thus: Proliferation of A431 cell line (CellTiter-Glo). Format: cell-based. Particulars: Homo sapiens, A-431, 72 h. The method, then:
Test Example 3. Determination of the Inhibitory Effect of the Compound of the Present Invention on the Proliferation of Ba/F3 EGFR Mutant Cell Line and A431 Cell Line
Experimental objective: The objective of this test example is to determine the inhibitory effect of the compound on the proliferation of Ba/F3 EGFR mutant cell line and A431 cell line
Experimental instruments: Microplate reader (BioTek Synergy H1), pipette (Eppendorf & Rainin).
A431 cells were cultured, and harvested after reaching a suitable density. The cells were adjusted to an appropriate cell concentration with the complete medium. The cell suspension were spread on a 96-well plate (90 μL per well), and the plate was placed in a 37° C., 5% CO2 incubator overnight to let the cells adhere to the wall. Solutions of the compound at different concentrations were formulated with DMSO and culture medium. Solvent control was set. The solution of the compound was added to the 96-well plate ([…]), and the plate was incubated in the 37° C., 5% CO2 incubator for 72 h. CellTiter-Glo solution was added and mixed well by shaking, and the plate was incubated in the dark for 10 minutes. The values were measured by BioTek Synergy H1 microplate reader.
as §1
The inhibition rate was calculated using the […] signal value. The concentration and inhibition rate were fitted to a nonlinear regression curve by Graphpad Prism software to obtain the IC50 value.

Experiment [2] has as its target Ba/F3 EGFR-D770-N771ins_SVD (Homo sapiens, UniProt P00533, DUP768-770, cells depend on it). Description: Proliferation of Ba/F3 EGFR mutant cell line (CellTiter-Glo). It is filed as cell-based, mouse. The conditions noted are these: 72 h to 144 h, read-out: Ba/F3 EGFR-D770-N771ins_SVD IC50.

EGFR WT, sequence (P00533 25-1210): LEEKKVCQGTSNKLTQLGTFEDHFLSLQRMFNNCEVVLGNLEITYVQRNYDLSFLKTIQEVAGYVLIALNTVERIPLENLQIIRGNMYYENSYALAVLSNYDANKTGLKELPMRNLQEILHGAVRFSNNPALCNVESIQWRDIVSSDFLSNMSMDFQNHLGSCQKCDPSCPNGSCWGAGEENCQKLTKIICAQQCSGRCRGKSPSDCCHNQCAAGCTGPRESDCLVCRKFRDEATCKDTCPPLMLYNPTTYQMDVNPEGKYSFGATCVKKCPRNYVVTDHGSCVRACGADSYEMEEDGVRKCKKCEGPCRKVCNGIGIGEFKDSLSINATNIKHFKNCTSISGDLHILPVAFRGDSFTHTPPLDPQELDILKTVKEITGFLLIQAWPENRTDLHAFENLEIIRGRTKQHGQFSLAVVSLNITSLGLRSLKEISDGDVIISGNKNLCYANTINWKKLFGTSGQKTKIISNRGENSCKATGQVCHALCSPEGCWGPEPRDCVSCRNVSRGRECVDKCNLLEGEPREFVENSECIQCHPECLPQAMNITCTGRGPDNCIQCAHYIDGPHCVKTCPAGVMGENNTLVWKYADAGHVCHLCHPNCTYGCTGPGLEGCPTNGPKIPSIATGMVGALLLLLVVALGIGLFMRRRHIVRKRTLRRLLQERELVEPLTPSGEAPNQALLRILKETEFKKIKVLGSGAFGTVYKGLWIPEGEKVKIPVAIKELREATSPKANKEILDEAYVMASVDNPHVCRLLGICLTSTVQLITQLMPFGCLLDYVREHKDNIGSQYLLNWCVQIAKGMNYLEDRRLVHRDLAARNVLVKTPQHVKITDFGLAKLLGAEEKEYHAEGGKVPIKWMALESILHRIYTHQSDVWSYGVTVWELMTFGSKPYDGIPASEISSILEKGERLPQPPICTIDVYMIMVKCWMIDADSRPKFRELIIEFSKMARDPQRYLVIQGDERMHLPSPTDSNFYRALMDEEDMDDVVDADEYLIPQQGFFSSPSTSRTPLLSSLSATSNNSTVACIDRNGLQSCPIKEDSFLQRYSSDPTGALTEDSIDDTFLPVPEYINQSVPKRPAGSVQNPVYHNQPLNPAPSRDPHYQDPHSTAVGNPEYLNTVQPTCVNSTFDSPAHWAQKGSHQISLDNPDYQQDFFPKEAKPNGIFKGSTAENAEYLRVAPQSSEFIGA
Ba/F3 EGFR-D770-N771ins_SVD, sequence (P00533 with tags, fused parts or gaps DUP768-770): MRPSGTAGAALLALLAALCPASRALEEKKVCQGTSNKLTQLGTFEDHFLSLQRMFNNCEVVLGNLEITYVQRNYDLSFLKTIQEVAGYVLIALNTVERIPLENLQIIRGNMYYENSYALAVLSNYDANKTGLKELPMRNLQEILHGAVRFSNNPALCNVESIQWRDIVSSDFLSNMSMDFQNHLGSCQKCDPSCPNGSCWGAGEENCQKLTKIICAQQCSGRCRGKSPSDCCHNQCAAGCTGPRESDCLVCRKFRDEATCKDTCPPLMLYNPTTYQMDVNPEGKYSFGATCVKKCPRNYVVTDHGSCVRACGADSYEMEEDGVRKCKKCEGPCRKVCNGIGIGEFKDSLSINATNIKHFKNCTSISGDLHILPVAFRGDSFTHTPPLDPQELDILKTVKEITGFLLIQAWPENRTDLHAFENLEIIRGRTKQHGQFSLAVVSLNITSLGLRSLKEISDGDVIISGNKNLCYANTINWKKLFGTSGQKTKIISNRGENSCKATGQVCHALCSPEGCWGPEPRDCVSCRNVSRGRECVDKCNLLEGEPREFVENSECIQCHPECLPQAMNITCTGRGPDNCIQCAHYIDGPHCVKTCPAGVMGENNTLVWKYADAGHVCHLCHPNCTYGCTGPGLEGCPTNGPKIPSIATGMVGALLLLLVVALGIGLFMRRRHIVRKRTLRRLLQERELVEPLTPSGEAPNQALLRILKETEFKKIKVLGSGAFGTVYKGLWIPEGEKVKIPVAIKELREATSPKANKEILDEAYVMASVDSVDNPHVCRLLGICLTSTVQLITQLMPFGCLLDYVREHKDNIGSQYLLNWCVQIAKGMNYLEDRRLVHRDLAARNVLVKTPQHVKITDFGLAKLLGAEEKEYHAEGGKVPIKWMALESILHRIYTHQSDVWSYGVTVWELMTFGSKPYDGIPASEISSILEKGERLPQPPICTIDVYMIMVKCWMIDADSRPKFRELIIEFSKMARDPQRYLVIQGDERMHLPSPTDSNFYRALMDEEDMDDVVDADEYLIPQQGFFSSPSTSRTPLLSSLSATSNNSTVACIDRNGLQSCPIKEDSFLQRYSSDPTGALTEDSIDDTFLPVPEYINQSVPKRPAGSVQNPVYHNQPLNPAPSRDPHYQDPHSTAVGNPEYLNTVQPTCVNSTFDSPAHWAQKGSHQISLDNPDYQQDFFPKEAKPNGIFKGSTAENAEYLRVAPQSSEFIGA
EGFR D770_N771insNPG, sequence (P00533 with tags, fused parts or gaps INS770NPG limits assumed): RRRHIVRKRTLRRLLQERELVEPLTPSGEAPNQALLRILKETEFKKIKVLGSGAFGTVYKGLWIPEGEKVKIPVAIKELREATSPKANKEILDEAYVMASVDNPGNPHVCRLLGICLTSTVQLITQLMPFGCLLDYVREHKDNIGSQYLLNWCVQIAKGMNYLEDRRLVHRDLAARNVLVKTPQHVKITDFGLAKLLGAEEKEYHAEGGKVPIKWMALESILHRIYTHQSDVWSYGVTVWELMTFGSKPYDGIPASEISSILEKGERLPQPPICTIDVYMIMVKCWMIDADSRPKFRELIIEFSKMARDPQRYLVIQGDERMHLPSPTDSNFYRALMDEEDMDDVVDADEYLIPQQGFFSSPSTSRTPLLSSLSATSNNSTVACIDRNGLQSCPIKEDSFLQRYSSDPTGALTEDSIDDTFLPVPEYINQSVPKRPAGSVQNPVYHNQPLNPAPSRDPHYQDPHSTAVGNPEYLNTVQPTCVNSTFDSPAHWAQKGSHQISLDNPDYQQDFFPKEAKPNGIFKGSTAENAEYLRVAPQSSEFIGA

On to `C=CC(=O)Nc1cc(Nc2nccc(-c3cn(C)c4ccccc34)n2)c(OC)cc1N(C)CCN(C)C` [ADZ9291], for which, in experiment [1], the “T/C (%) Day 14” value amounted to 48.40%; the “TGI (%) Day 14” value was found to be 51.60%; the “Tumor volume (mm3, Mean ± SD) Day 14” value was 935 ± 176 mm3.
In turn, `C=CC(=O)Nc1cc(Nc2ncc(Br)c(-c3cn(C4CC4)c4ccccc34)n2)c(OC)cc1N1C[C@H]2CN(C)C[C@H]2C1` [Example 28, N-(5-((5-Bromo-4-(1-cyclopropyl-1H-indol-3-yl)pyrimidin-2-yl)amino)-4-methoxy-2-((3aR,6aS)-5-methylhexahydropyrrolo[3,4-c]pyrrol-2(1H)-yl)phenyl)acrylamide] came in with a half-maximal inhibitory concentration (IC50) at EGFR WT of 63.3 nM.
With `CC#CC(=O)Nc1cc(Nc2ncc(C(F)(F)F)c(-c3cn(C4CC4)c4ccccc34)n2)c(OC)cc1N1C[C@H]2CN(C)C[C@H]2C1` [Example 30, N-(5-((4-(1-Cyclopropyl-1H-indol-3-yl)-5-(trifluoromethyl)pyrimidin-2-yl)amino)-4-methoxy-2-((3aR,6aS)-5-methylhexahydropyrrolo[3,4-c]pyrrol-2(1H)-yl)phenyl)but-2-ynamide], on EGFR WT, inhibition was half-maximal at 453 nM (IC50).
Still for that read-out and setting: the value for `C=CC(=O)Nc1cc(Nc2ncc(C(=O)N(C)C)c(-c3cn(C)c4ccccc34)n2)c(OC)cc1N1C[C@H]2CN(C)C[C@H]2C1` [Example 31, 2-((5-Acrylamido-2-methoxy-4-((3aR,6aS)-5-methylhexahydropyrrolo[3,4-c]pyrrol-2(1H)-yl)phenyl)amino)-N,N-dimethyl-4-(1-methyl-1H-indol-3-yl)pyrimidine-5-carboxamide] was above 1000 nM; that for `C=CC(=O)Nc1cc(Nc2ncc(C(=O)NC3CC3)c(-c3cn(C)c4ccccc34)n2)c(OC)cc1N1C[C@H]2CN(C)C[C@H]2C1` [Example 32, 2-((5-Acrylamido-2-methoxy-4-((3aR,6aS)-5-methylhexahydropyrrolo[3,4-c]pyrrol-2(1H)-yl)phenyl)amino)-N-cyclopropyl-4-(1-methyl-1H-indol-3-yl)pyrimidine-5-carboxamide] was 82.9 nM; that for `C=CC(=O)Nc1cc(Nc2ncc(C(=O)NCc3ccccc3)c(-c3cn(C)c4ccccc34)n2)c(OC)cc1N(C)CCN(C)C` [Example 33, 2-((5-Acrylamido-4-((2-(dimethylamino)ethyl)(methyl)amino)-2-methoxyphenyl)amino)-N-benzyl-4-(1-methyl-1H-indol-3-yl)pyrimidine-5-carboxamide] was 133 nM.
Turning to `C=CC(=O)Nc1cc(Nc2ncc(-c3ncco3)c(-c3cn(C4CC4)c4ccccc34)n2)c(OC)cc1N(C)CCN(C)C` [Example 37, N-(5-((4-(1-Cyclopropyl-1H-indol-3-yl)-5-(oxazol-2-yl)pyrimidin-2-yl)amino)-2-((2-(dimethylamino)ethyl)(methyl)amino)-4-methoxyphenyl)acrylamide], in experiment [1], the “T/C (%) Day 14” value is recorded as 25.75%; the “TGI (%) Day 14” value amounted to 74.25%; the “Tumor volume (mm3, Mean ± SD) Day 14” value amounted to 499 ± 151 mm3. On EGFR D770_N771insNPG, this compound registered an IC50 of 0.56 nM. Moreover, the IC50 in the experiment with A431 cell line stood at 66 nM. Moreover, the GI50 in experiment [2] stood at 16.6 nM.
Turning to `C=CC(=O)Nc1cc(Nc2ncc(-c3cccs3)c(-c3cn(C4CC4)c4ccccc34)n2)c(OC)cc1N1C[C@H]2CN(C)C[C@H]2C1` [Example 46, N-(5-((4-(1-Cyclopropyl-1H-indol-3-yl)-5-(thiophen-2-yl)pyrimidin-2-yl)amino)-4-methoxy-2-((3aR,6aS)-5-methylhexahydropyrrolo[3,4-c]pyrrol-2(1H)-yl)phenyl)acrylamide], it took 72.7 nM to reach half-maximal inhibition against EGFR WT (IC50).
`C=C(F)C(=O)Nc1cc(Nc2ncc(-c3ncco3)c(-c3cn(C4CC4)c4ccccc34)n2)c(OC)cc1N1CC(N(C)C)C1` [Example 66, N-(5-((4-(1-Cyclopropyl-1H-indol-3-yl)-5-(oxazol-2-yl)pyrimidin-2-yl)amino)-2-(3-(dimethylamino)azetidin-1-yl)-4-methoxyphenyl)-2-fluoroacrylamide] showed an IC50 against EGFR WT of 50.8 nM.
As to `C=CC(=O)Nc1cc(Nc2ncc(-c3ncco3)c(-c3cn(C)c4ccccc34)n2)c(OC)cc1N(C)CCN(C)C` [Example 81, N-(2-((2-(Dimethylamino)ethyl)(methyl)amino)-4-methoxy-5-((4-(1-methyl-1H-indol-3-yl)-5-(oxazol-2-yl)pyrimidin-2-yl)amino)phenyl)acrylamide], in experiment [1], the “T/C (%) Day 14” value is on record as 17.23%; the “TGI (%) Day 14” value is recorded as 82.77%; the “Tumor volume (mm3, Mean ± SD) Day 14” value came out at 334 ± 121 mm3. Besides, 0.47 nM corresponded to half-maximal inhibition on EGFR D770_N771insNPG (IC50). Besides, the concentration for half-maximal inhibition (IC50) in the experiment on A431 cell line was found to be 66.8 nM. Moreover, in experiment [2], the GI50 was found to be 22.9 nM.
For the compound `C=CC(=O)Nc1cc(Nc2ncc(C#N)c(-c3cn(C4CC4)c4cccc(F)c34)n2)c(OC)cc1N(C)CCN(C)C` [Example 120, N-(5-((5-Cyano-4-(1-cyclopropyl-4-fluoro-1H-indol-3-yl)pyrimidin-2-yl)amino)-2-((2-(dimethylamino)ethyl)(methyl)amino)-4-methoxyphenyl)acrylamide], the 50% inhibitory concentration (IC50) on EGFR WT was above 1000 nM.
As for `C=CC(=O)Nc1cc(Nc2ncc(N=S(C)(C)=O)c(-c3cn(C)c4ccccc34)n2)c(OC)cc1N(C)CCN(C)C` [Example 136, N-(5-((5-((Dimethyl(oxo)-λ^6-sulfaneylidene)amino)-4-(1-methyl-1H-indol-3-yl)pyrimidin-2-yl)amino)-2-((2-(dimethylamino)ethyl)(methyl)amino)-4-methoxyphenyl)acrylamide], inhibition against EGFR WT was half-maximal at 250 nM (IC50).
Consider `C=CC(=O)Nc1cc(Nc2ncc(C#N)c(-n3nc(C)c4ccccc43)n2)c(OC)cc1N(C)CCN(C)C` [Example 138, N-(5-((5-Cyano-4-(3-methyl-1H-indazol-1-yl)pyrimidin-2-yl)amino)-2-((2-(dimethylamino)ethyl)(methyl)amino)-4-methoxyphenyl)acrylamide], for which, at EGFR WT, the 50% inhibitory concentration (IC50) is above 1000 nM.
The same measure, in the same setting: in the case of `C=CC(=O)Nc1cc(Nc2ncc(C(=O)NCc3ccc(F)cc3)c(-c3cn(C)c4ccccc34)n2)c(OC)cc1N(C)CCN(C)C` [Example 142, 2-((5-Acrylamido-4-((2-(dimethylamino)ethyl)(methyl)amino)-2-methoxyphenyl)amino)-N-(4-fluorobenzyl)-4-(1-methyl-1H-indol-3-yl)pyrimidine-5-carboxamide] it was 133 nM.

Source of the values: US20220340547A1, “INDOLE DERIVATIVE-CONTAINING INHIBITOR, PREPARATION METHOD THEREFOR AND APPLICATION THEREOF” (Shanghi Hansoh Biosoh Biomedical Co., Ltd., priority 2019, published 2022).
